The values below come from patent publication US20210052544A1, “METHODS OF TREATING AND/OR […] USING NABILONE” (Solantech Inc., priority 2018, published 2021).

This test concerns bedsores. Nature of the test: Clinical observation of bedsores in dementia patients with agitation treated orally with nabilone. In kind it is in vivo. The method, then: Patients with dementia having agitation were treated orally at a dose of 0.5 mg nabilone twice a day initially and then going up to a total of 2 mg per day to reduce agitation. […] The number of patients where this effect was observed was six. The perceived impact on healing was significant with healing times varying between 3-6 weeks for small sores.

`CCCCCCC(C)(C)c1cc(O)c2c(c1)OC(C)(C)C1CCC(=O)CC21` (stereo not shown) [nabilone]: the “large sores in treated patients” value (oral 0.5 mg twice a day up to 2 mg per day) is listed as “No large sores were observed”. For the same molecule, the “healing of existing bedsores” value (patients who did have bedsores, oral 0.5 mg twice a day up to 2 mg per day) is given as “the bedsores appeared to heal faster”. For the same molecule, where the note is “patients with dementia having agitation, oral 0.5 mg twice a day initially, up to total 2 mg per day, effect observed in six patients”, the “number and/or severity of bedsores” value is listed as “perceived reduction in the number and/or severity of bedsores”. The “healing times for small sores” value (small sores, oral 0.5 mg twice a day up to 2 mg per day) is listed as 3-6 weeks.
